The values that follow come from patent publication US20150216182A1, “COMPOSITIONS AND METHODS OF THE ATTRACTION AND REPULSION OF INSECTS” (Olfactor Laboratories, Inc., priority 2012, published 2015).

One experiment deals with cpA neurons. As to the kind of experiment: extracellular single-sensillum electrophysiology: inhibition of CO2-responsive (cpA) neuronal activity. As to conditions: for Class: Table 10, single compounds, percent reduction in cpA activity compared to baseline; for Class (inhibitor class of the individual component): Inh = inhibitor.
The subject of a further experiment is female mosquitoes. In words: whole plant or invertebrate. As to conditions: 2 h; for mortality at 200 µg/mL: read-out: % mortality with 0.2 mg/ml; for mortality at 2000 µg/mL: read-out: % mortality with 2 mg/ml.
The next experiment has as its system larvae. In words: larvicidal activity assay. In kind it is in vivo. The following applies: 24 hour exposure, dead larvae / total larvae; for pest or weed control at 0.25 %: 0.25% compound, read-out: % Lethality with 0.25% compound conc.; for pest or weed control at 100 ppm: 100 ppm compound, read-out: % Lethality at 100 ppm. The procedure: A 6-well plate (Corning Life Sciences, Tewksbury, Mass.) is used to test a compound's larvicidal activity. […] After a 24 hour exposure, the number of dead larvae are counted and recorded.
The results are presented in Table 17 as % lethality (the number of dead larvae divided by the total number of larvae).

Setting [1] is: Table 13, single component alone.
Setting [2] is: Table 16, single component alone.

Take `COc1ccc(C=O)cc1OC` [OLI0095, Veratraldehyde]: in the experiment with cpA neurons, the Class entry is recorded as “Mild Inhibitor (mild inhibitors (reducing activity by 20-40%))”. Moreover, the “Class (inhibitor class of the individual component)” value with cpA neurons (setting [1]) is “Mild”.

As to `CCC(=O)OCCc1ccccc1` [OLI0076, Phenethyl propionate], in the experiment with female mosquitoes, the mortality at 200 µg/mL was 0% and the mortality at 2000 µg/mL was determined as 100%. Besides, in the experiment with cpA neurons, the Class result was “Moderate Inhibitor (moderate inhibitors (reducing activity by 40-60%))”. Moreover, the “Class (inhibitor class of the individual component)” value with cpA neurons (setting [1]) is listed as “Mod”. Moreover, the “Class (inhibitor class of the individual component)” value in the experiment with cpA neurons (setting [2]) is given as “Mod”. Moreover, the “inhibitor class of single compound” value in the experiment with cpA neurons (single compound) is on record as “moderate inhibitor (40-60% reduction in neuronal activity as compared to baseline activity of the neuron)”. Further, in the experiment on larvae, the pest or weed control at 0.25 % came to 100% and the pest or weed control at 100 ppm is 0%.

With `COC1=C(C)OC(C)C1=O` (stereo not shown) [OLI0081, 2,5-dimethyl-4-methoxy-3(2H) furanone], the Class entry in the experiment on cpA neurons was “Mild Inhibitor (mild inhibitors (reducing activity by 20-40%))”.

On to `CCCC(=O)OC/C=C(\C)CCC=C(C)C` [OLI0090, Geranylbutyrate], for which the Class result with cpA neurons is recorded as “Mild Inhibitor (mild inhibitors (reducing activity by 20-40%))”.

For the compound `CC12CCC(CC1)C(C)(C)O2` [OLI0087, Eucalyptol], the Class entry with cpA neurons is recorded as “Mild Inhibitor (mild inhibitors (reducing activity by 20-40%))”.

Turning to `CCCCCCC(=O)OCC` [OLI0086, Ethylheptanoate], the Class entry with cpA neurons was “Mild Inhibitor (mild inhibitors (reducing activity by 20-40%))”.

For `CCCCC1OC(=O)CC1C` (stereo not shown) [OLI0094, whiskey lactone], in the experiment on cpA neurons, the Class entry is given as “Mild Inhibitor (mild inhibitors (reducing activity by 20-40%))”.

As for `CC/C=C\CCOC(C)=O` [OLI0073, cis-3-hexenyl acetate], in the experiment on female mosquitoes, the mortality at 200 µg/mL worked out at 0% and the mortality at 2000 µg/mL was found to be 0%. Moreover, in the experiment with cpA neurons, the Class result was “Moderate Inhibitor (moderate inhibitors (reducing activity by 40-60%))”. In the experiment with cpA neurons (setting [1]), the “Class (inhibitor class of the individual component)” value is given as “Mod”. In addition, in the experiment on larvae, the pest or weed control at 0.25 % worked out at 95% and the pest or weed control at 100 ppm was 0%.

For `CC/C=C\CCOC(=O)CCC` [OLI0083, cis-3-hexenyl butyrate], the Class entry in the experiment with cpA neurons is given as “Mild Inhibitor (mild inhibitors (reducing activity by 20-40%))”. For the same compound, in the experiment with cpA neurons (setting [1]), the “Class (inhibitor class of the individual component)” value is reported as “Mild”.

In the case of `CCCC(=O)OC(C)(C)Cc1ccccc1` [OLI0082, alpha,alpha-dimethyl phenethyl butyrate], the Class entry in the experiment on cpA neurons is on record as “Mild Inhibitor (mild inhibitors (reducing activity by 20-40%))”. The “Class (inhibitor class of the individual component)” value with cpA neurons (setting [1]) is recorded as “Mild”.

In the case of `CCC/C=C\CCOC(C)=O` [OLI0078, (Z)-hept-3-enylacetate], the Class result in the experiment on cpA neurons was “Mild Inhibitor (mild inhibitors (reducing activity by 20-40%))”. Moreover, the “Class (inhibitor class of the individual component)” value in the experiment on cpA neurons (setting [1]) and in the experiment with cpA neurons (setting [2]) was “Mild” throughout.
